The target in series [1] is T1, Farnesyl protein transferase (FPT) (Homo sapiens, UniProt P49354+P49356).
T1 construct: partially purified from human placenta by ammonium sulphate fractionation; from tissue; host or cells: human placenta
Briefly: In-vitro farnesyl protein transferase assay (farnesylation of Ki-ras with radiolabelled farnesyl pyrophosphate). Type of series: biochemical. The following applies: "in the above test"; FPT partially purified from human placenta, substrate Kras (CVIM C-terminal sequence). As to the method:
The following stock solutions were used and the assays were conducted in 96 well plates: TRIS Buffer (500 mM TRIS, 50 mM MgCl2.6H2O, pH=8.0); Farnesyl pyrophosphate (6.4 mg/ml); Aprotinin (1.9 mg/ml); Ki-ras (0.5 mg/ml, stored at −80° C.); Acid ethanol (850 ml absolute ethanol+150 ml concentrated HCl).
Farnesyl protein transferase (FPT) was partially purified from human placenta by ammonium sulphate fractionation followed by a single Q-Sepharose™ (Pharmacia, Inc) anion exchange chromatography essentially as described by Ray and Lopez-Belmonte (Ray K P and Lopez-Belmonte J (1992) Biochemical Society Transactions 20 494-497). The substrate for FPT was Kras (CVIM C-terminal sequence). The cDNA for oncogenic val12 variant of human c-Ki-ras-2 4B was obtained from the plasmid pSW11-1 (ATCC). This was then subcloned into the polylinker of a suitable expression vector e.g. pIC147. The Kras was obtained after expression in the E. coli strain, BL21. […]
Assays were performed in 96 well plates as follows: 10 μl of test compound solution was added to each well. […] Precipitated protein was then collected onto glass fibre filter mats (B) using a Tomtec™ cell harvester and tritiated label was measured in a Wallac™1204 Betaplate scintillation counter. […]

We go through 4 compounds from patent US6410539B1, “Imidazole derivatives and their use as farnesyl protein transferase inhibitors” (Astrazenca UK Limited, priority 1997, dated 2002).

One may read the melting point as the temperature of the solid-liquid transition. The pIC50 is the negative decadic logarithm of the IC50, by convention in mol/L. A low value points to a high IC50.

pIC50: −log10 of the molar value.

In turn, `COC(=O)[C@H](CCSC)NC(=O)c1ccc(NC(Cn2ccnc2)c2ccc(F)cc2)cc1-c1ccc(F)cc1` (stereo partly drawn) [Example 2, Methyl (2S)-2-{2-(4-fluorophenyl)-4-[1-(4-fluorophenyl)-2-(imidazol-1-yl)ethylamino]benzoylamino}-4methylsulfanylbutyrate] had a melting point of 94 to 98 °C. In series [1], `CSCCC(NC(=O)c1ccc(NC(Cn2ccnc2)c2ccc(F)cc2)cc1-c1ccccc1)C(=O)O` [Example 6, (2S)-2-{2-Phenyl-4-[1-(4-fluorophenyl-2-imidazol-1-yl)ethylamino]benzoylamino}-4-methylsulfanylbutyric acid] showed a negative-log IC50 (pIC50) of approximately 8.70. With `CSCC[C@H](NC(=O)c1cc(NC(Cn2ccnc2)c2ccc(F)cc2)ccc1CCc1ccc(F)cc1)C(=O)O` (stereo partly drawn) [Example 8, (2S)-2-{5-[1-(4-Fluorophenyl)-2-(imidazol-1-yl)ethylamino]-2-(4-fluorophenethyl)benzoylamino}-4-methylsulfanylbutyric acid], the melting point was 115 to 120 °C.

`CSCC[C@H](NC(=O)c1cc(NC(Cn2ccnc2)c2ccc(F)cc2)ccc1Cc1ccc(F)cc1)C(=O)O` (stereo partly drawn) [Example 10, (2S)-2-{5-[1(4-Fluorophenyl)-2-(imidazol-1-yl)ethylamino]-2-(4-fluorobenzyl)benzoylamino}-4-methylsulfanylbutyric acid] gave a melting point of 130 to 135 °C.
